Read-outs that look alike come from different tables or passages of the source.

For orientation: EC50 means the concentration needed to bring the measured effect to its halfway point.

In the test the test system is endogenous cellular STAT1 (phosphorylated at Tyr701) in NCI-H1373 cells. In words: Phospho-STAT1 (Tyr701) LANCE Ultra TR-FRET Detection Assay. The class given is cell-based. The note with it: phospho-STAT1 (Tyr701) induction, read-out: NH1373 pSTAT1 EC50. On the technique in general: Time-resolved FRET reads energy transfer from a long-lived donor to a nearby acceptor.

For the molecule `C[C@@H](CCCn1cnc2cc(-c3ncc(C(F)(F)F)c(N4CC(C)(O)C4)n3)c(F)cc2c1=O)Nc1cn[nH]c(=O)c1C(F)(F)F` [Example 190, (S)-6-fluoro-7-(4-(3-hydroxy-3-methylazetidin-1-yl)-5-(trifluoromethyl)pyrimidin-2-yl)-3-(4-((6-oxo-5-(trifluoromethyl)-1,6-dihydropyridazin-4-yl)amino)pentyl)quinazolin-4(3H)-one], the concentration giving a half-maximal response (EC50) (Homo sapiens, NCI-H1373, 48 h) came out at 29.9 nM.
On to `C[C@@H](CCCn1ccc2cc(-c3ncc([N+](=O)[O-])c(N)n3)c(F)cc2c1=O)Nc1cn[nH]c(=O)c1C(F)(F)F` [Example 111, 6-(4-amino-5-nitro-pyrimidin-2-yl)-7-fluoro-2-[(4S)-4-[[6-oxo-5-(trifluoromethyl)-1H-pyridazin-4-yl]amino]pentyl]isoquinolin-1-one], for which the 50% effective concentration (EC50) (Homo sapiens, NCI-H1373, 48 h) was determined as 6.67 nM.
As for `Cc1cnc(-c2cc3ccn(C[C@@H]4CCC[C@H](Nc5cn[nH]c(=O)c5C(F)(F)F)C4)c(=O)c3cc2F)nc1` [Example 240], the EC50 (48 hours) was determined as 4.35 nM.
Turning to `Nc1nc(-c2cc3ccn(C[C@@H]4CCC[C@H](Nc5cn[nH]c(=O)c5C(F)(F)F)C4)c(=O)c3cc2F)cnc1C(F)F` [Example 264, 6-(6-amino-5-(difluoromethyl)pyrazin-2-yl)-7-fluoro-2-(((1R,3S)-3-((6-oxo-5-(trifluoromethyl)-1,6-dihydropyridazin-4-yl)amino)cyclohexyl)methyl)isoquinolin-1(2H)-one], the EC50 (Homo sapiens, NCI-H1373, 48 h) worked out at 76.1 nM.
Turning to `O=c1[nH]ncc(N[C@H]2CCC[C@@H](Cn3ccc4cc(-c5ncc(C(F)F)cn5)c(F)cc4c3=O)C2)c1C(F)(F)F` [Example 226, 6-[5-(difluoromethyl)pyrimidin-2-yl]-7-fluoro-2-[[(1R,3S)-3-[[6-oxo-5-(trifluoromethyl)-1H-pyridazin-4-yl]amino]cyclohexyl]methyl]isoquinolin-1-one], where the note is “Homo sapiens, NCI-H1373, 48 h”, the EC50 was determined as 5.34 nM.
For `C[C@@H](CCCn1ccc2cc(-c3ncc(S(C)(=O)=O)cn3)c(F)cc2c1=O)Nc1cn[nH]c(=O)c1C(F)(F)F` [Example 84, (S)-7-fluoro-6-(5-(methylsulfonyl)pyrimidin-2-yl)-2-(4-((6-oxo-5-(trifluoromethyl)-1,6-dihydropyridazin-4-yl)amino)pentyl)isoquinolin-1(2H)-one], the EC50 (Homo sapiens, NCI-H1373, 48 h) amounted to 263 nM.
On to `Nc1nc(-c2cc3ncn(CCC[C@@H](Nc4cn[nH]c(=O)c4C(F)(F)F)C4CC4)c(=O)c3cc2F)ncc1Cl` [Example 461, (R)-7-(4-amino-5-chloropyrimidin-2-yl)-3-(4-cyclopropyl-4-((6-oxo-5-(trifluoromethyl)-1,6-dihydropyridazin-4-yl)amino)butyl)-6-fluoroquinazolin-4(3H)-one], for which the concentration for a half-maximal effect (EC50) (Homo sapiens, NCI-H1373, 48 h) amounted to 15.1 nM.
Turning to `C[C@@H](CCCn1ccc2cc(-c3ncc(C(F)F)c(NC4CC4)n3)c(F)cc2c1=O)Nc1cn[nH]c(=O)c1C(F)(F)F` [Example 221, (S)-6-(4-(cyclopropylamino)-5-(difluoromethyl)pyrimidin-2-yl)-7-fluoro-2-(4-((6-oxo-5-(trifluoromethyl)-1,6-dihydropyridazin-4-yl)amino)pentyl)isoquinolin-1(2H)-one], under “Homo sapiens, NCI-H1373, 48 h”, the EC50 came out at 15.3 nM.
`O=c1[nH]ncc(N2CC(F)(F)C[C@H]2CCCn2ccc3cc(-c4ncc(C(F)(F)F)cn4)c(F)cc3c2=O)c1C(F)(F)F` [Example 139, 2-[3-[(2R)-4,4-difluoro-1-[6-oxo-5-(trifluoromethyl)-1H-pyridazin-4-yl]pyrrolidin-2-yl]propyl]-7-fluoro-6-[5-(trifluoromethyl)pyrimidin-2-yl]isoquinolin-1-one]: the concentration for a half-maximal effect (EC50) (Homo sapiens, NCI-H1373, 48 h) was found to be 64.8 nM.
In the case of `Cc1cnc(-c2cc3ncn(CCC[C@H](C)Nc4cn[nH]c(=O)c4C(F)(F)F)c(=O)c3cc2F)nc1` [Example 95, (S)-6-fluoro-7-(5-methylpyrimidin-2-yl)-3-(4-((6-oxo-5-(trifluoromethyl)-1,6-dihydropyridazin-4-yl)amino)pentyl)quinazolin-4(3H)-one], the concentration for a half-maximal effect (EC50) (Homo sapiens, NCI-H1373, 48 h) was found to be 97.1 nM.
Turning to `COc1cnc(-c2cc3ncn(CCC[C@H](C)Nc4cn[nH]c(=O)c4C(F)(F)F)c(=O)c3cc2F)nc1N1CC(O)(C(F)(F)F)C1` [Example 287, (S)-6-fluoro-7-(4-(3-hydroxy-3-(trifluoromethyl)azetidin-1-yl)-5-methoxypyrimidin-2-yl)-3-(4-((6-oxo-5-(trifluoromethyl)-1,6-dihydropyridazin-4-yl)amino)pentyl)quinazolin-4(3H)-one], under “Homo sapiens, NCI-H1373, 48 h”, the concentration for a half-maximal effect (EC50) came out at 137 nM.
In the case of `COC[C@@H](CCCn1ccc2cc(-c3ncc(C(F)(F)F)cn3)c(F)cc2c1=O)Nc1cn[nH]c(=O)c1C(F)(F)F` [Example 135, (R)-7-fluoro-2-(5-methoxy-4-((6-oxo-5-(trifluoromethyl)-1,6-dihydropyridazin-4-yl)amino)pentyl)-6-(5-(trifluoromethyl)pyrimidin-2-yl)isoquinolin-1(2H)-one], the EC50 (Homo sapiens, NCI-H1373, 48 h) worked out at 17.7 nM.
For the molecule `Nc1nc(-c2cc3ccn(C[C@@H]4CCC[C@H](Nc5cn[nH]c(=O)c5C(F)(F)F)C4)c(=O)c3c(F)c2F)ncc1OC(F)F` [Example 245, 6-(4-amino-5-(difluoromethoxy)pyrimidin-2-yl)-7,8-difluoro-2-(((1R,3S)-3-((6-oxo-5-(trifluoromethyl)-1,6-dihydropyridazin-4-yl)amino)cyclohexyl)methyl)isoquinolin-1(2H)-one], the EC50 (Homo sapiens, NCI-H1373, 48 h) was found to be 8.13 nM.
On to `O=c1[nH]ncc(N[C@H](CCCn2cnc3cc(-c4cnc(C5CC5)cn4)c(F)cc3c2=O)COC(F)F)c1C(F)(F)F` [Example 413, (R)-7-(5-cyclopropylpyrazin-2-yl)-3-(5-(difluoromethoxy)-4-((6-oxo-5-(trifluoromethyl)-1,6-dihydropyridazin-4-yl)amino)pentyl)-6-fluoroquinazolin-4(3H)-one], for which, under “Homo sapiens, NCI-H1373, 48 h”, the EC50 was found to be 4.59 nM.
Turning to `C[C@@H](CCCn1ccc2cc(-c3nc4cnccn4n3)c(F)cc2c1=O)Nc1cn[nH]c(=O)c1C(F)(F)F` [Example 334, (S)-6-([1,2,4]triazolo[1,5-a]pyrazin-2-yl)-7-fluoro-2-(4-((6-oxo-5-(trifluoromethyl)-1,6-dihydropyridazin-4-yl)amino)pentyl)isoquinolin-1(2H)-one], the half-maximal effective concentration (EC50) (Homo sapiens, NCI-H1373, 48 h) is 24.1 nM.
Same read-out and setting: under `C[C@@H](CCCn1ccc2cc(-c3ncc(C(F)(F)F)c(N)n3)c(F)c(F)c2c1=O)Nc1cn[nH]c(=O)c1C(F)(F)F` [Example 81, (S)-6-(4-amino-5-(trifluoromethyl)pyrimidin-2-yl)-7,8-difluoro-2-(4-((6-oxo-5-(trifluoromethyl)-1,6-dihydropyridazin-4-yl)amino)pentyl)isoquinolin-1(2H)-one] stands 4.26 nM; under `CC(CCCn1ccc2cc(-c3ncc(C(F)(F)F)cn3)c(F)cc2c1=O)Oc1cn[nH]c(=O)c1C(F)(F)F` (stereo not shown) [Example 136, 7-fluoro-2-[4-[[6-oxo-5-(trifluoromethyl)-1H-pyridazin-4-yl]oxy]pentyl]-6-[5-(trifluoromethyl)pyrimidin-2-yl]isoquinolin-1-one], 75.9 nM.
Take `[2H]C([2H])([2H])Oc1cnc(-c2cc3ccn(CCC[C@H](C)Nc4cn[nH]c(=O)c4C(F)(F)F)c(=O)c3cc2F)nc1N` [Example 196, 6-[4-amino-5-(trideuteriomethoxy)pyrimidin-2-yl]-7-fluoro-2-[(4S)-4-[[6-oxo-5-(trifluoromethyl)-1H-pyridazin-4-yl]amino]pentyl]isoquinolin-1-one]: the EC50 (Homo sapiens, NCI-H1373, 48 h) came out at 6.13 nM.
Regarding `N#C[C@@H](CCCn1ccc2cc(-c3ncc(C(F)(F)F)cn3)c(F)cc2c1=O)Nc1cn[nH]c(=O)c1C(F)(F)F` [Example 162, (2R)-5-[7-fluoro-1-oxo-6-[5-(trifluoromethyl)pyrimidin-2-yl]-2-isoquinolyl]-2-[[6-oxo-5-(trifluoromethyl)-1H-pyridazin-4-yl]amino]pentanenitrile], the EC50 (Homo sapiens, NCI-H1373, 48 h) amounted to 662 nM.
For `COc1cnc(-c2cc3ccn(CCC[C@H](C)Nc4cn[nH]c(=O)c4C(F)(F)F)c(=O)c3cc2F)nc1N` [Example 102, 6-(4-amino-5-methoxy-pyrimidin-2-yl)-7-fluoro-2-[(4S)-4-[[6-oxo-5-(trifluoromethyl)-1H-pyridazin-4-yl]amino]pentyl]isoquinolin-1-one], the 50% effective concentration (EC50) (Homo sapiens, NCI-H1373, 48 h) amounted to 8.23 nM.
On to `COc1cnc(-c2cc3ccn(CCC[C@H](C)Nc4cn[nH]c(=O)c4C(F)(F)F)c(=O)c3cc2F)nc1NCC(F)F` [Example 158, 6-[4-(2,2-difluoroethylamino)-5-methoxy-pyrimidin-2-yl]-7-fluoro-2-[(4S)-4-[[6-oxo-5-(trifluoromethyl)-1H-pyridazin-4-yl]amino]pentyl]isoquinolin-1-one], for which, under “Homo sapiens, NCI-H1373, 48 h”, the EC50 worked out at 109 nM.
Take `CC[C@@H](CCCn1cnc2cc(-c3ncc(Cl)c(N)n3)c(F)cc2c1=O)Nc1cn[nH]c(=O)c1C(F)(F)F` [Example 342, (S)-7-(4-amino-5-chloropyrimidin-2-yl)-6-fluoro-3-(4-((6-oxo-5-(trifluoromethyl)-1,6-dihydropyridazin-4-yl)amino)hexyl)quinazolin-4(3H)-one]: where the note is “Homo sapiens, NCI-H1373, 48 h”, the 50% effective concentration (EC50) was 9.84 nM.
In the case of `CC[C@@H](CCCn1ccc2cc(-c3ncc(OC(F)F)c(N)n3)c(F)cc2c1=O)Nc1cn[nH]c(=O)c1C(F)(F)F` [Example 360, (S)-6-(4-amino-5-(difluoromethoxy)pyrimidin-2-yl)-7-fluoro-2-(4-((6-oxo-5-(trifluoromethyl)-1,6-dihydropyridazin-4-yl)amino)hexyl)isoquinolin-1(2H)-one], the EC50 (Homo sapiens, NCI-H1373, 48 h) turned out to be 12.7 nM.
On the same count and under the same terms, under `O=c1[nH]ncc(N[C@H](CCCn2ccc3nc(-c4ccc(C(F)(F)F)cn4)ccc3c2=O)COC(F)F)c1C(F)(F)F` [Example 386, (R)-6-(5-(difluoromethoxy)-4-((6-oxo-5-(trifluoromethyl)-1,6-dihydropyridazin-4-yl)amino)pentyl)-2-(5-(trifluoromethyl)pyridin-2-yl)-1,6-naphthyridin-5(6H)-one] stands 2.96 nM; under `Nc1nc(-c2cc3ccn(CCC[C@H](COC(F)F)Nc4cn[nH]c(=O)c4C(F)(F)F)c(=O)c3c(F)c2F)ncc1C(F)(F)F` [Example 389, (R)-6-(4-amino-5-(trifluoromethyl)pyrimidin-2-yl)-2-(5-(difluoromethoxy)-4-((6-oxo-5-(trifluoromethyl)-1,6-dihydropyridazin-4-yl)amino)pentyl)-7,8-difluoroisoquinolin-1(2H)-one], 5.14 nM.

Values taken from patent publication US12459922B2 (Gilead Sciences, Inc., priority 2022, dated 2025).
